Test results reported in the NIST ThermoML archive (doi:10.1021/je3009073).

Experiment: xn = mol fraction of the nth substance listed
Settings: 101 kPa, Liquid; for viscosity: Capillary tube (Ostwald / Ubbelohde) method; for mass density: Pycnometric method

CC(O)C(=O)[O-].[NH3+]CCO (stereo not drawn) [2-hydroxyethylammonium lactate] + O
Settings	mass density [kg/m3]	viscosity [mPa·s]
303.15 K, x2 = 0	1226.1	11341
303.15 K, x2 = 0.116	1225.3	6523.5
303.15 K, x2 = 0.2026	1223	3828.7
303.15 K, x2 = 0.3045	1220	2137.9
303.15 K, x2 = 0.4043	1216.5	1051
303.15 K, x2 = 0.5027	1210.1	498.98
303.15 K, x2 = 0.6023	1203.2	212
303.15 K, x2 = 0.7016	1190.3	74.69
303.15 K, x2 = 0.8022	1167.2	22.28
303.15 K, x2 = 0.9007	1121	5.19
303.15 K, x2 = 0.9501	1076	2.24
308.15 K, x2 = 0	1223.1	6699.9
308.15 K, x2 = 0.116	1222.2	3975.1
308.15 K, x2 = 0.2026	1219.9	2401.1
308.15 K, x2 = 0.3045	1216.9	1372.6
308.15 K, x2 = 0.4043	1213.4	675.18
308.15 K, x2 = 0.5027	1206.9	343.45
308.15 K, x2 = 0.6023	1200.2	156.6
308.15 K, x2 = 0.7016	1187.2	56.32
308.15 K, x2 = 0.8022	1164.2	18.03
308.15 K, x2 = 0.9007	1118.2	4.46
308.15 K, x2 = 0.9501	1073.5	1.97
313.15 K, x2 = 0	1220.4	4144.6
313.15 K, x2 = 0.116	1219.5	2468.4
313.15 K, x2 = 0.2026	1217.1	1570.4
313.15 K, x2 = 0.3045	1214.1	900.49
313.15 K, x2 = 0.4043	1210.6	458.18
313.15 K, x2 = 0.5027	1204.1	243.72
313.15 K, x2 = 0.6023	1197.3	109.99
313.15 K, x2 = 0.7016	1184.3	43.42
313.15 K, x2 = 0.8022	1161.5	14.62
313.15 K, x2 = 0.9007	1115.7	3.83
313.15 K, x2 = 0.9501	1071.2	1.74
318.15 K, x2 = 0	1217.4	2653.8
318.15 K, x2 = 0.116	1216.3	1615.5
318.15 K, x2 = 0.2026	1213.9	1047.4
318.15 K, x2 = 0.3045	1211	601.07
318.15 K, x2 = 0.4043	1207.6	321.24
318.15 K, x2 = 0.5027	1201	174.88
318.15 K, x2 = 0.6023	1194.2	83.91
318.15 K, x2 = 0.7016	1181.2	34.39
318.15 K, x2 = 0.8022	1158.4	11.85
318.15 K, x2 = 0.9007	1112.7	3.35
318.15 K, x2 = 0.9501	1068.4	1.57
323.15 K, x2 = 0	1214.9	1733.6
323.15 K, x2 = 0.116	1213.7	1084.5
323.15 K, x2 = 0.2026	1211.3	717.58
323.15 K, x2 = 0.3045	1208.3	418.69
323.15 K, x2 = 0.4043	1204.9	232.51
323.15 K, x2 = 0.5027	1198.1	–
323.15 K, x2 = 0.6023	1191.5	64.89
323.15 K, x2 = 0.7016	1178.4	27.88
323.15 K, x2 = 0.8022	1155.7	9.96
323.15 K, x2 = 0.9007	1110.1	2.94
323.15 K, x2 = 0.9501	1065.8	1.41
328.15 K, x2 = 0	1212	1182.5
328.15 K, x2 = 0.116	1210.6	742.12
328.15 K, x2 = 0.2026	1208.1	478.37
328.15 K, x2 = 0.3045	1205.3	299.81
328.15 K, x2 = 0.4043	1201.7	173.38
328.15 K, x2 = 0.5027	1195.1	99.46
328.15 K, x2 = 0.6023	1188.4	50.52
328.15 K, x2 = 0.7016	1175.3	22.65
328.15 K, x2 = 0.8022	1152.6	8.43
328.15 K, x2 = 0.9007	1107	2.61
328.15 K, x2 = 0.9501	1063	1.25

CC(O)C(=O)[O-].CN(C)C(N)=[N+](C)C [1,1,3,3-tetramethylguanidinium lactate] + O
Settings	mass density [kg/m3]	viscosity [mPa·s]
303.15 K, x2 = 0	1123.5	13684
303.15 K, x2 = 0.1001	1124	7665.3
303.15 K, x2 = 0.2165	1124.3	3594.1
303.15 K, x2 = 0.3182	1124.7	1926
303.15 K, x2 = 0.409	1124.9	1128.2
303.15 K, x2 = 0.5036	1124.5	554.56
303.15 K, x2 = 0.6044	1122.8	253.27
303.15 K, x2 = 0.7034	1119.9	104.72
303.15 K, x2 = 0.8113	1111.2	32.59
303.15 K, x2 = 0.9017	1088.3	8.68
303.15 K, x2 = 0.95	1058.1	3.32
308.15 K, x2 = 0	1120.9	7295.9
308.15 K, x2 = 0.1001	1121.2	4186.3
308.15 K, x2 = 0.2165	1121.5	2150.1
308.15 K, x2 = 0.3182	1121.9	1141.9
308.15 K, x2 = 0.409	1122.1	698
308.15 K, x2 = 0.5036	1121.3	352.18
308.15 K, x2 = 0.6044	1119.7	175.49
308.15 K, x2 = 0.7034	1116.7	74.98
308.15 K, x2 = 0.8113	1107.9	25.05
308.15 K, x2 = 0.9017	1084.9	7.1
308.15 K, x2 = 0.95	1055	2.83
313.15 K, x2 = 0	1117.6	3961.9
313.15 K, x2 = 0.1001	1117.9	2412.1
313.15 K, x2 = 0.2165	1118.1	1263.3
313.15 K, x2 = 0.3182	1118.4	718.88
313.15 K, x2 = 0.409	1118.5	429.45
313.15 K, x2 = 0.5036	1117.6	235.35
313.15 K, x2 = 0.6044	1116.1	122.11
313.15 K, x2 = 0.7034	1113.1	55.39
313.15 K, x2 = 0.8113	1104.2	19.16
313.15 K, x2 = 0.9017	1081.5	5.87
313.15 K, x2 = 0.95	1051.5	2.41
318.15 K, x2 = 0	1114.3	2264.3
318.15 K, x2 = 0.1001	1114.5	1261.7
318.15 K, x2 = 0.2165	1114.6	797.81
318.15 K, x2 = 0.3182	1114.9	458.45
318.15 K, x2 = 0.409	1114.9	289.6
318.15 K, x2 = 0.5036	1114.1	167.33
318.15 K, x2 = 0.6044	1112.6	89.04
318.15 K, x2 = 0.7034	1109.6	42
318.15 K, x2 = 0.8113	1100.6	15.25
318.15 K, x2 = 0.9017	1078.1	4.94
318.15 K, x2 = 0.95	1048.4	2.1
323.15 K, x2 = 0	1111.6	1365.5
323.15 K, x2 = 0.1001	1111.7	890.99
323.15 K, x2 = 0.2165	1111.7	502.11
323.15 K, x2 = 0.3182	1112	310.53
323.15 K, x2 = 0.409	1111.8	201.98
323.15 K, x2 = 0.5036	1111.1	120.29
323.15 K, x2 = 0.6044	1109.2	64.59
323.15 K, x2 = 0.7034	1106.7	32.53
323.15 K, x2 = 0.8113	1097.1	12.34
323.15 K, x2 = 0.9017	1074.5	4.2
323.15 K, x2 = 0.95	1045.6	1.86
328.15 K, x2 = 0	1108.1	867.05
328.15 K, x2 = 0.1001	1108.1	579.99
328.15 K, x2 = 0.2165	1108.2	341
328.15 K, x2 = 0.3182	1108.4	218.6
328.15 K, x2 = 0.409	1108.2	146.62
328.15 K, x2 = 0.5036	1107.4	88.71
328.15 K, x2 = 0.6044	1105.6	49.38
328.15 K, x2 = 0.7034	1102.9	25.68
328.15 K, x2 = 0.8113	1093.2	10.19
328.15 K, x2 = 0.9017	1070.6	3.62
328.15 K, x2 = 0.95	1042.5	1.65
